The source of these data is patent publication USRE41998E1, “Compositions and methods of treatment of sympathetically maintained pain” (Arclon Therapeutics, Inc., priority 1990, dated 2010).

One data set has as its system normal subject. The method, then:
Five normal subjects were used as controls. One subject was used to investigate the effect of clonidine on normal skin (i.e., the top of the foot). The four remaining subjects were used to assess the effect of intradermal norepinephrine and phenylephrine in normal skin.
To exclude further local anesthetic effects of clonidine, a clonidine patch was applied to the top of a normal subject's foot and sensory testing was performed prior to and 40 hours after the patch application.

A further data set deals with healthy control subjects. Briefly: Intradermal norepinephrine and phenylephrine in normal skin of control subjects. Type of data set: in vivo, human. The method, then:
Five normal subjects were used as controls.
Effects of Intradermal Norepinephrine and Phenylephrine: In two patients, intradermal injections of the non-specific α-adrenergic agonist norepinephrine (5 μg in 10 μl normal saline) or the α-adrenergic agonist phenylephrine (10 μg in 10 μl normal saline) were made at a patch site immediately after removing the patch. […] All injection were made in a single-blinded fashion. The patients and control subjects were instructed to rate the magnitude of any evoked pain and resultant hyperalgesia on a verbal scale from 0 to 10.

The subject of data set [1] is patients with SMP. Briefly: Intradermal norepinephrine and phenylephrine in SMP patients (clonidine patch site, normal site).
Procedure: Effects of Intradermal Norepinephrine and Phenylephrine: In two patients, intradermal injections of the non-specific α-adrenergic agonist norepinephrine (5 μg in 10 μl normal saline) or the α-adrenergic agonist phenylephrine (10 μg in 10 μl normal saline) were made at a patch site immediately after removing the patch. Norepinephrine and phenylephrine injections were also made at control sites on the patients' normal limb and into the normal skin of 4 healthy control subjects. […] All injection were made in a single-blinded fashion. The patients and control subjects were instructed to rate the magnitude of any evoked pain and resultant hyperalgesia on a verbal scale from 0 to 10.
Data set [2] deals with patients with SMP. As to conditions: cited from earlier work; for effect on pain in patients with SMP: in vivo.
Another data set concerns α1 and α2 receptors. To be noted: cited from earlier work.
The conditions of data set [3]: in vivo; cited from earlier work.
In data set [4] the test system is patients with SMP. The data set can be described thus: Intravenous phentolamine block in patients with SMP. The data set is classed as in vivo, human. Here is the method: If peripheral α-adrenergic receptors are blocked completely, skin temperature would approach core temperature. Such a blockage would produce profound hypotension and a reflex tachycardia. […] This dose ranged from 35 mg to 45 mg over a 30 minute period.
The heart rate, systolic and diastolic blood pressure changes produced by phentolamine in a typical patient were relatively mild. In the first seven patients phentolamine alone was administered.
The patient was diagnosed as having SMP and then underwent local LABSG, and the administration of phentolamine systemically by intravenous injection.
Seventeen patients received both phentolamine and LABSG. The time of maximum relief of stimulus evoked pain correlated highly with the time at which there was maximum relief of stimulus-independent pain. All pain scores were converted to percent pain relief. The peak relief of stimulus independent pain for the LABSG compares favorably to the peak relief obtained from the phentolamine block. […] Patients with less than 50% pain relief from both procedures were considered to have pain independent of SMP. There was a high correlation of the results of the two procedures (r=0.78).

Read-outs that look alike come from different tables or passages of the source.

Source text for patients with SMP or SIP: Patient Selection and Control Subjects: Six normotensive patients with chronic ongoing pain and cutaneous hyperalgesia to mechanical and cooling stimuli following soft tissue or nerve trauma were examined. All patients had previously undergone sympathetic blocks (i.e., local anesthetic blockade of the appropriate sympathetic ganglia) to assess the involvement of the sympathetic nerves in their pain state.
A series of 2-7 patches were applied consecutively to different sites within the hyperalgesic zone. Each patch was left in place for 2-10 days within this affected zone. Prior to, during and immediately after drug application, the following parameters were monitored: heart rate, blood pressure, ongoing pain and pain to mechanical and cold stimuli.
The scale consisted of a 100 mm line where “no pain” and “most intense pain” were indicated on the left and right ends of the scale respectively. […] The mechanical stimuli included innocuous brushing with a camel's hair brush and innocuous pressure from the 206 g weight of a 13 mm diameter (i.e., 2N) brass probe. Pain thresholds to mechanical stimuli were determined in the area within and surrounding the patch sites using calibrated von Frey filaments. The cooling stimulus consisted of small drops of acetone lightly placed onto the patient's skin. […] 3) Tactile sensibility: To rule out local anesthetic effects, the detection (touch) thresholds were determined in the area within the surrounding selected patch sites using calibrated von Frey filaments. In addition, the patient's ability to distinguish the blunt from the sharp ends of a pin was also assessed. The patients were instructed to close their eyes during the hyperalgesia and von Frey threshold testing procedures.

As to `Clc1cccc(Cl)c1N=C1NCCN1` [clonidine], in the data set with patient with SMP (after patch application), the “time to reduction of pain evoked by deep pressure, light brushing and cooling stimuli” value was 24 to 36 h. In addition, the “time to complete abolition of evoked pain” value with patient with SMP (following patch application) was ≤ 48 h. Moreover, the “persistence of effect after removal of the patch” value in the data set with patient with SMP (human, in vivo) is listed as “more than 24 hours”. Also, the “adverse side effects, cardiovascular parameters” value in the data set on patient with SMP (same patient) is “no adverse side effects or changes in cardiovascular parameters”. Moreover, the “hyperalgesia of skin surrounding the patch” value in the data set on patient with SMP (same patient) is recorded as “remained hyperalgesic”. Also, in the data set on patient with SMP (sciatic nerve injury patient, 0.2 or 0.3 mg/day patch, 6 patches, 2-10 days each), the “relief of hyperalgesia in the skin underlying the patch” value is listed as “Complete relief”. Further, the “detection threshold to mechanical stimuli in the patient” value in the data set with patient with SMP (test for local anesthetic effect) was “did not alter”. Moreover, the “mechanical detection thresholds inside and outside the patch site” value in the data set on patients with SMP or SIP (Case 1) is on record as “identical”. In addition, the “pain threshold to von Frey filaments within the patch site” value with patients with SMP or SIP (Case 1) was “approximated the patient's ‘normal’ pain threshold”. Further, the “ratings of stimulus-independent pain” value in the data set on patients with SMP or SIP (Case 1) is listed as “not affected”. In addition, the “time hyperalgesia still absent after removing a patch” value with patients with SMP or SIP (Case 1) is on record as “at least 12 hours”. The “Mechanical Hyperalgesia: post-clonidine” value is recorded as “−” with patients with SMP or SIP (Case 1, SMP, lower extremity); “−” with patients with SMP or SIP (Case 2, SMP, lower extremity); “−” with patients with SMP or SIP (Case 4, SMP, face); “+” in the data set with patients with SMP or SIP (Case 5, SIP, upper extremity); “+” with patients with SMP or SIP (Case 6, SIP, lower extremity). The “Touch Detection Threshold: post-clonidine” value with patients with SMP or SIP (Case 1, SMP, pre-clonidine 4) was 4 bars; in the data set with patients with SMP or SIP (Case 2, SMP, pre-clonidine 1) it was 1 bars; in the data set on patients with SMP or SIP (Case 3, SMP, pre-clonidine 1.5), 1.5 bars; in the data set with patients with SMP or SIP (Case 4, SMP, pre-clonidine 0.5), 0.5 bars; with patients with SMP or SIP (Case 5, SIP, pre-clonidine 1), 1 bars; in the data set on patients with SMP or SIP (Case 6, SIP, pre-clonidine 2) it was 2 bars. The “ability to distinguish sharp from blunt stimuli” value in the data set with patients with SMP or SIP (Case 1, after patch removal) is “not affected”. In the data set with patients with SMP or SIP (Case 1, after removal of patch applied for 36 hours), the “mechanical (brush, pressure) and cooling (acetone) stimuli at patch site” value is “detected but were not painful”. Moreover, in the data set on patients with SMP or SIP (Case 1, after removal of patch, before norepinephrine injection, untreated skin 4 out of 10), the “pain rating to light brushing at patch site” value is reported as 1 out of 10. Besides, the detection thresholds entry with patients with SMP or SIP (Case 1, four patches (FIG. 2)) is recorded as “unchanged”. Further, the “hyperalgesia to mechanical stimuli” value in the data set on patients with SMP or SIP (Case 1, four patches with quantitative sensory testing (FIG. 2)) is on record as “greatly reduced and, in many cases, completely eliminated”. Besides, the return of hyperalgesia entry in the data set on patients with SMP or SIP (Case 1, from patch application) was “within less than a week”. For the same compound, the “time to reduction of mechanical hyperalgesia after patch applied” value with patients with SMP or SIP (Case 1, noted by patient) is 36 to 48 h. The “reduction of ongoing pain” value with patients with SMP or SIP (Case 4) was 50-75%. For the same compound, the “relief of hyperalgesia throughout entire affected zone” value with patients with SMP or SIP (Case 4, application to the upper lip) is given as “complete relief of hyperalgesia”. The “hyperalgesia and ongoing pain” value with patients with SMP or SIP (Case 5, SIP, application to palmar aspect of the hand) is reported as “Neither the patient's hyperalgesia nor ongoing pain were improved”. The “hyperalgesia to cold stimuli” value in the data set on patients with SMP or SIP (Case 6, SIP) is “not affected”. The “reduction in ongoing pain and mechanical hyperalgesia to brush stimuli” value in the data set on patients with SMP or SIP (Case 6, SIP, patches on dorsum of the foot) is given as “approximately 35%”. The “overall level of stimulus-independent pain” value in the data set on patients with SMP or SIP (Cases 2, 3) is “did not report any reduction”. In the data set on patients with SMP or SIP (Cases 2, 3, zone greater than half of lower extremity), the “extent of hyperalgesia relief” value is on record as “only eliminated hyperalgesia at or near the site of drug application”. For the same compound, the “alteration in blood pressure or heart rate” value in the data set with patients with SMP or SIP (any of the patients) is on record as “No appreciable alteration”. The “pain or hyperalgesia (summary)” value with patients with SMP or SIP (cases 5 and 6, pain independent of the sympathetics) was “little effect on pain or hyperalgesia”. For the same compound, the “skin reaction surrounding the patch site” value with patients with SMP or SIP (following some patch applications, treatment discontinued in cases 1, 4) is “erythematous rash”. For the same compound, in the data set on patients with SMP or SIP (patients with SMP), the “mechanical and cold hyperalgesia at the site of drug administration (summary)” value is “significantly reduced mechanical and cold hyperalgesia”. The “side effects from clonidine patches” value with patients with SMP or SIP (six patients) is given as “minor”. Further, the “detection or pain threshold to mechanical stimuli in a normal subject” value with normal subject (Example 2, test for local anesthetic effect) is recorded as “did not alter”. Besides, in the data set with normal subject (top of normal subject's foot, 40 hours after patch application), the “pain and detection threshold to von Frey filaments” value is “Neither the pain nor detection threshold to von Frey filaments were affected”.
Take `NC[C@H](O)c1ccc(O)c(O)c1` [norepinephrine]: the “pain and hyperalgesia after intradermal injection into the leg” value in the data set on healthy control subjects (four control subjects, norepinephrine 5 μg) was “mild, short lasting pain and no hyperalgesia”. Also, the “pain evoked by injection at clonidine patch site” value with patients with SMP [1] (Case 1, intradermal 5 μg in 10 μl saline) is reported as “intense, burning pain sensation”. For the same compound, the “mechanical hyperalgesia rating at the patch site” value with patients with SMP [1] (Case 1, twenty-five minutes after injection) was 3.5 out of 10. For the same compound, the “pain and hyperalgesia after injection into normal limb” value with patients with SMP [1] (Cases 1 and 4, normal limb) is given as “evoked intense pain, but did not result in hyperalgesia”. For the same compound, the “pain or hyperalgesia in normal subjects” value in the data set on patients with SMP [2] (intradermal injection) was “does not cause pain or hyperalgesia”. For the same compound, the “effect on pain and hyperalgesia relieved by sympathectomy or sympathetic block” value in the data set with patients with SMP [2] (intradermal injection, patients) is “rekindles the pain and hyperalgesia”.
On to `CC(COc1ccccc1)N(CCCl)Cc1ccccc1` (stereo not shown) [phenoxybenzamine], for which, in the data set on α1 and α2 receptors, the “potency in blocking α1 (postsynaptic) receptors relative to α2 receptors” value is reported as “approximately 100 fold”. Also, in the data set with patients with SMP [2], the “effect on pain in patients with SMP” value is reported as “can be effective in relieving pain”.
Consider `Cc1ccc(N(CC2=NCCN2)c2cccc(O)c2)cc1` [phentolamine], for which the “potency in inhibiting α1- relative to α2-adrenergic receptors” value in the data set on α1 and α2 receptors was “three to five”. Moreover, the plasma half-life result in data set [3] was “approximately 20 minutes”. Also, in the data set on patients with SMP [2] (intravenous administration), the “effect on sympathetically-maintained pain and hyperalgesia” value is “rapidly abolishes sympathetically-maintained pain and hyperalgesia”. For the same compound, the “pain relief following the blocks (local anesthetic sympathetic ganglion block, i.v. phentolamine)” value with patients with SMP [4] (Example 3 cases 1-4 (case 2 had no phentolamine block)) is 70-100%. For the same compound, the “effect of block on pain” value with patients with SMP [4] (Example 3 cases 5, 6 (SIP)) is listed as “not affected”. For the same compound, in the data set on patients with SMP [4] (IV phentolamine), the “side effect: dizziness” value was 2 patients, the “side effect: headache” value is listed as 3 patients and the “side effect: nasal stuffiness” value was 12 patients. Besides, the “pain relief in patients with SMP (preliminary studies)” value in the data set with patients with SMP [4] (cumulative dose 35 mg to 45 mg over a 30 minute period) was “effectively relieved pain”. Moreover, in the data set with patients with SMP [4] (first seven patients, phentolamine alone), the heart rate change entry is “increased moderately”. Further, in the data set on patients with SMP [4] (five patients with more than 50% pain relief from phentolamine block), the “time for pain to return to within 75% of baseline” value is 2 to 7 h. Further, in the data set on patients with SMP [4] (one patient with 45% maximum relief with LABSG), the “pain relief with the phentolamine block” value was “no relief”. For the same compound, the pulse rate change result in the data set on patients with SMP [4] (patients pretreated with propranolol 1-2 mg) is “minimal increase”. In the data set with patients with SMP [4] (patients who had 50% or greater pain relief following LABSG), this compound displayed a mean pain relief of 75%. The “reduction in pain as measured by visual analysis scores” value with patients with SMP [4] (person, SMP right foot, IV, accumulated dose of 25 mg over 15 minutes) was found to be 80%. For the same compound, the “time course over which pain gradually returned” value in the data set with patients with SMP [4] (same patient) was “about three”. Further, in the data set on patients with SMP [4] (same patient, after last phentolamine dose), the “time pain remained at low level” value was “about two”. Further, the “patient's pain relieved” value in the data set on patients with SMP [4] (same patient, after two further injections each of 10 mg) is given as “over 80%”. Besides, in the data set on patients with SMP [4] (same patient, first 4 boli IV, total dose 15 mg), the “gradual decrease in stimulus-independent pain” value is “about 50%”. In addition, the blood pressure change entry in the data set on patients with SMP [4] (supine, with or without propranolol) is “little effected”.
On to `CNC[C@H](O)c1cccc(O)c1` [phenylephrine], for which, in the data set on healthy control subjects (control subjects, phenylephrine 10 μg), the “pain and hyperalgesia after injections” value is “Only brief, mild pain sensations and no hyperalgesia”. Besides, in the data set with patients with SMP [1] (Case 4), the “pain evoked at control site (volar forearm)” value is given as “moderate pain of shorter duration”. Further, the “ongoing level of pain” value in the data set with patients with SMP [1] (Case 4, approximately 25 minutes after injection) was “increased substantially”. The “pain evoked by injection at clonidine patch site” value in the data set on patients with SMP [1] (Case 4, intradermal 10 μg in 10 μl saline, after 3 days of clonidine) is listed as “intense stinging pain”.
Turning to `COc1cc2nc(N3CCN(C(=O)c4ccco4)CC3)nc(N)c2cc1OC` [prazosin], the receptor subtype selectivity entry in the data set on α1 and α2 receptors was “highly selective α1-blocking agent”. In the data set on patients with SMP [2], the “effect on pain in patients with SMP” value is “can be effective in relieving pain”.
`CC(C)NCC(O)COc1cccc2ccccc12` (stereo not shown) [propranolol]: the “effect on pain in patients with SMP” value in the data set with patients with SMP [2] was “little effect on SMP”. Also, in the data set with patients with SMP [4] (0.5 mg intravenously, five minutes after last phentolamine dose), the “effect on pain when added after α-adrenergic blockade” value is on record as “did not add appreciably to the analgesia”.
